Results from publication PMC12316308, “Interactions of substrates and phosphinyl containing inhibitors with bacterial and human zinc proteases” (PLOS One, 2025).
Several values for one entry are separate records, joined by “and”; a condition that tells them apart may be missing. Equal values may be shown once. Entries after “also recorded” stand apart in the source; their conditions may differ. Read-outs that look alike come from different tables or passages of the source.

Experiments:
[1] = target: T1, APMA activated MMP-9 (MMP-9(A)) (Homo sapiens, UniProt P14780); assay: Enzyme inhibition kinetics, fluorogenic substrate ES001; assay type: biochemical
T1 construct: made in house; host or cells: Sf9 and High Five insect cells
T1 sequence (P14780 107-707 limits assumed): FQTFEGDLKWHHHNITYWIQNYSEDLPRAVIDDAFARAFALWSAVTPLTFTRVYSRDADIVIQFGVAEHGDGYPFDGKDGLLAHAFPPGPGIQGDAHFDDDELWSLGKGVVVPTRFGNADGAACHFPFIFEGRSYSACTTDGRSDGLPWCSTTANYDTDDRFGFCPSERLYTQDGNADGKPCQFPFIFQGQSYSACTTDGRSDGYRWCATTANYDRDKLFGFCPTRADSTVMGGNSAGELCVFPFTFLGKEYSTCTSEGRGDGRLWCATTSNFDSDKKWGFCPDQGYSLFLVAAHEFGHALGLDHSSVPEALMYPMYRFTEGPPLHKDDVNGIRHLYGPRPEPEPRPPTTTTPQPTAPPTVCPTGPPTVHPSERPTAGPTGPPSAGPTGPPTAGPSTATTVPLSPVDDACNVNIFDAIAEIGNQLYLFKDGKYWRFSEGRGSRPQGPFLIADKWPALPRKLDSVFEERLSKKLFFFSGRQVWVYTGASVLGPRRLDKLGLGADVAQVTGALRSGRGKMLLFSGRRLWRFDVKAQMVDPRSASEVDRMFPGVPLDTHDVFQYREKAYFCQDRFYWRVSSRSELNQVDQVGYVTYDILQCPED
Summary of the method: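 Recombinant full-length proMMP-9 expressed in insect cells was auto-activated with APMA and titrated with galardin. Activity at 0.05 nM enzyme was measured using 4.0 µM fluorogenic substrate ES001 in 100 µL 0.1 M Hepes pH 7.5 containing 10 mM CaCl2, 0.005% Brij-35 and 1.0% DMSO. Initial rates were followed at 37°C (excitation 320 nm, emission 405 nm) relative to inhibitor-free controls.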

[2] = target: T2, human MT1-MMP/MMP-14 (catalytic domain) (Homo sapiens, UniProt P50281); assay: as above; assay type: biochemical; conditions: for remaining activity at 0.01 µM: log [H1] (M) -8; for remaining activity at 0.0001 µM: log [H1] (M) -10
T2 construct: human MT1-MMP/MMP-14 (catalytic domain); purchased Calbiochem (San Diego, CA, USA)

[3] = target: MMP-14; conditions: previously reported; cited from earlier work
[4] = target: T3, pseudolysin (PLN, LasB) (Pseudomonas aeruginosa, UniProt P14756); assay: Enzyme inhibition kinetics, fluorogenic substrate ES005; assay type: biochemical; conditions: for remaining activity at 100 µM: 100 µM inhibitor
T3 construct: purchased Calbiochem (San Diego, CA, USA)
T3 sequence (P14756 198-498): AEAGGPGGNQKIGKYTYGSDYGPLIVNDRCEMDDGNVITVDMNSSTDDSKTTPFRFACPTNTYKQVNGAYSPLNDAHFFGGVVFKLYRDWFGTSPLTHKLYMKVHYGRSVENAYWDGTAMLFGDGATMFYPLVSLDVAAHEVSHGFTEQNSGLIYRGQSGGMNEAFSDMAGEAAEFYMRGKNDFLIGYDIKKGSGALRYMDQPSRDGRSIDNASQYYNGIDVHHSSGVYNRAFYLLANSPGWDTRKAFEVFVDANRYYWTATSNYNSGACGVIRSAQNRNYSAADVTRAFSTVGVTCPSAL

[5] = target: T4, aureolysin (ALN) (Staphylococcus aureus, UniProt P81177); assay: as above; assay type: biochemical; conditions: for remaining activity at 100 µM: 100 µM inhibitor
T4 construct: purchased BioCentrum Ltd (Kraków, Poland)
T4 sequence (P81177 209-509): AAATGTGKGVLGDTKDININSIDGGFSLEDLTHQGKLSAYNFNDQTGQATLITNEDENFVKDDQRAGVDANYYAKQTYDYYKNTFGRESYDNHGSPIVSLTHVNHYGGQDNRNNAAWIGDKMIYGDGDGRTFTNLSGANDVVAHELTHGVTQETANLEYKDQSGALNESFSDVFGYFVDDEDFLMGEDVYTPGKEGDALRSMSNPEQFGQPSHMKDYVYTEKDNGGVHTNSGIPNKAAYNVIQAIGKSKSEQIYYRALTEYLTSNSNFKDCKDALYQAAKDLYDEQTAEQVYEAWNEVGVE

[6] = target: T5, thermolysin (TLN) (Bacillus thermoproteolyticus, UniProt P00800); assay: as above; assay type: biochemical; conditions: for vi/v0 avg (time dependent inhibition, Supplementary Figure S8): Thermolysin, inhibitor 100 µM
T5 construct: purchased Calbiochem (San Diego, CA, USA)
T5 sequence (P00800 233-548): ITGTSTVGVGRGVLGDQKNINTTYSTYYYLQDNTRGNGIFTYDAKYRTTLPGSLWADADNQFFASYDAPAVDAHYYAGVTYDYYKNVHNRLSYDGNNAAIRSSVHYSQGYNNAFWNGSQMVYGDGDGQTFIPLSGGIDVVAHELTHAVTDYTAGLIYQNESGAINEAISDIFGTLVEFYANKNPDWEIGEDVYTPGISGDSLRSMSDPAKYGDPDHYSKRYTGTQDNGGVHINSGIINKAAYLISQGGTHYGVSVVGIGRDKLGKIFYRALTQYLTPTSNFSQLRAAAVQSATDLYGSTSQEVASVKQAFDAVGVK
Summary of the method: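 Initial rates were read at 37 °C (ex 320/em 405 nm) with 4.0 µM substrate, ES001 for MMP-14 (1.0 nM) and ES005 for PLN (0.5 nM), TLN (0.21 nM), ALN (1.4 nM), in pH 7.5 Hepes, 10 mM CaCl2, 0.005% Brij-35, 1.0% DMSO. Enzymes were preincubated 30 min at room temperature or not; IC50 fitted, Ki from IC50 using Km.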

[7] = MMP-14, log [H1] (M) -4, replicates
[8] = read-out: vi/v0 before correction of curve, MMP-14, replicates
[9] = read-out: vi/v0 corrected (v0 is the average of log -10 to log -7), MMP-14, replicates

NC(=O)C(CCC(=O)O)NC(=O)C(CCC(=O)O)NC(=O)C(Cc1cc(-c2ccc(-c3cccc(Cl)c3)cc2)no1)CP(=O)(O)c1ccc(Br)cc1 (stereo not drawn) [H-1]
remaining activity at 100 µM ([1]; read-out: Vi/V0, APMA activated MMP-9, [H1] 100 μM, replicate vi over each of 4 controls): 23.6% | remaining activity at 100 µM ([1]; read-out: vi/v0 (single replicate), rMMP-9 (APMA activated), 100 µM inhibitor, no preincubation): 16.4% | remaining activity at 100 µM ([1]; read-out: vi/v0 avg, rMMP-9 (APMA activated), 100 µM inhibitor, no preincubation): 21.7% | Ki [2]: 890 ± 40 nM | remaining activity at 100 µM ([2]; 0.25 h, read-out: vi/v0 (single replicate), MMP-14, 100 µM inhibitor, 15 min pre incubation): 3.03% | remaining activity at 100 µM ([2]; 0.25 h, read-out: vi/v0 avg, MMP-14, 100 µM inhibitor, 15 min pre incubation): 2.86% | remaining activity at 100 µM ([2]; 0.5 h, read-out: vi/v0 (single replicate), MMP-14, 100 µM inhibitor, 30 min pre incubation): 4.56% | remaining activity at 100 µM ([2]; 0.5 h, read-out: vi/v0 avg, MMP-14, 100 µM inhibitor, 30 min pre incubation): 3.15% | inhibitory effect on enzymatic activity ([2]; MMP-14, 100 μM compound, in words): strong inhibition | vi/v0 Av (bar diagram figure 7) ([2]; MMP-14, inhibitor 100 μM, average over preincubation times): 0.03265 | vi/v0 (relative enzyme activity with inhibitor), single determinations ([2]; MMP-14, inhibitor 100 μM, preincubation 0 min): 0.02699 and 0.03692 and 0.04011 and 0.0422 | vi/v0 (relative enzyme activity with inhibitor), single determinations ([2]; MMP-14, inhibitor 100 μM, preincubation 15 min): 0.03033 and 0.02659 and 0.02876 | vi/v0 (relative enzyme activity with inhibitor), single determinations ([2]; MMP-14, inhibitor 100 μM, preincubation 30 min): 0.04555 and 0.0252 and 0.02389 | vi/v0 before correction of curve [2, 7]: 0 | vi/v0 corrected (v0 is the average of log -10 to log -7) [2, 7]: 0 | remaining activity at 100 µM ([2]; read-out: vi/v0 (single replicate), MMP-14, 100 µM inhibitor, no preincubation): 2.7% | remaining activity at 100 µM ([2]; read-out: vi/v0 avg, MMP-14, 100 µM inhibitor, no preincubation): 3.66% | remaining activity at 100 µM ([2]; read-out: vi/v0 before correction of curve, MMP-14, log [H1] (M) -4, replicates): 0% | remaining activity at 0.01 µM [2, 8]: 90.7% | remaining activity at 0.0001 µM [2, 8]: 94.8% | remaining activity at 100 µM ([2]; read-out: vi/v0 corrected (v0 is the average of log -10 to log -7), MMP-14, log [H1] (M) -4, replicates): 0% | remaining activity at 0.01 µM [2, 9]: 91.4% | remaining activity at 0.0001 µM [2, 9]: 95.4% | Ki [3]: 140 nM | remaining activity at 100 µM ([4]; 0.25 h, read-out: vi/v0 (single replicate), Pseudolysin, 15 min pre incubation): 97.4% | remaining activity at 100 µM ([4]; 0.25 h, read-out: vi/v0 avg, Pseudolysin, 15 min pre incubation): 100% | remaining activity at 100 µM ([4]; 0.5 h, read-out: vi/v0 (single replicate), Pseudolysin, 30 min pre incubation): 99% | remaining activity at 100 µM ([4]; 0.5 h, read-out: vi/v0 avg, Pseudolysin, 30 min pre incubation): 96.9% | inhibitory effect on enzymatic activity ([4]; PLN, 100 μM compound, in words, 100 µM): did not inhibit; also recorded: no inhibition | vi/v0 Av (bar diagram figure 7) ([4]; Pseudolysin (PLN), inhibitor 100 μM, average over 0, 15, 30 min preincubation): 0.993 | vi/v0 (relative enzyme activity with inhibitor), single determinations ([4]; Pseudolysin (PLN), inhibitor 100 μM, preincubation 0 min): 0.9731 and 1.039 and 1.005 and 1.023 | vi/v0 (relative enzyme activity with inhibitor), single determinations ([4]; Pseudolysin (PLN), inhibitor 100 μM, preincubation 15 min): 0.9736 and 1.014 and 0.9905 and 1.0217 | vi/v0 (relative enzyme activity with inhibitor), single determinations ([4]; Pseudolysin (PLN), inhibitor 100 μM, preincubation 30 min): 0.9904 and 0.9857 and 0.9514 and 0.949 | remaining activity at 100 µM ([4]; read-out: vi/v0 (single replicate), Pseudolysin, no preincubation): 97.3% | remaining activity at 100 µM ([4]; read-out: vi/v0 avg, Pseudolysin, no preincubation): 101% | remaining activity at 100 µM ([5]; 0.25 h, read-out: vi/v0 (single replicate), Aureolysin, 15 min pre incubation): 81.9% | remaining activity at 100 µM ([5]; 0.25 h, read-out: vi/v0 avg, Aureolysin, 15 min pre incubation): 88.7% | remaining activity at 100 µM ([5]; 0.5 h, read-out: vi/v0 (single replicate), Aureolysin, 30 min pre incubation): 89.6% | remaining activity at 100 µM ([5]; 0.5 h, read-out: vi/v0 avg, Aureolysin, 30 min pre incubation): 89.8% | inhibitory effect on enzymatic activity ([5]; ALN, 100 μM compound, in words, 100 µM): did not inhibit; also recorded: no inhibition | vi/v0 Av (bar diagram figure 7) ([5]; Aureolysin (ALN), inhibitor 100 μM, average over 0, 15, 30 min preincubation): 0.886 | vi/v0 (relative enzyme activity with inhibitor), single determinations ([5]; Aureolysin (ALN), inhibitor 100 μM, preincubation 0 min): 0.8363 and 0.9057 and 0.9048 and 0.862 | vi/v0 (relative enzyme activity with inhibitor), single determinations ([5]; Aureolysin (ALN), inhibitor 100 μM, preincubation 15 min): 0.8192 and 0.9295 and 0.9112 | vi/v0 (relative enzyme activity with inhibitor), single determinations ([5]; Aureolysin (ALN), inhibitor 100 μM, preincubation 30 min): 0.8961 and 0.9218 and 0.8734 | remaining activity at 100 µM ([5]; read-out: vi/v0 (single replicate), Aureolysin, no preincubation): 83.6% | remaining activity at 100 µM ([5]; read-out: vi/v0 avg, Aureolysin, no preincubation): 87.7% | inhibitory effect on enzymatic activity ([6]; TLN, 100 μM compound, in words, 100 µM): did not inhibit; also recorded: no inhibition | vi/v0 Av (bar diagram figure 7) ([6]; Thermolysin (TLN), inhibitor 100 μM, average over 0, 15, 30 min preincubation): 1.079 | vi/v0 (relative enzyme activity with inhibitor), single determinations ([6]; Thermolysin (TLN), inhibitor 100 μM, preincubation 0 min): 1.072 and 1.233 and 0.6933 and 1.269 | vi/v0 (relative enzyme activity with inhibitor), single determinations ([6]; Thermolysin (TLN), inhibitor 100 μM, preincubation 15 min): 1.072 and 0.7991 and 1.161 and 1.236 | vi/v0 (relative enzyme activity with inhibitor), single determinations ([6]; Thermolysin (TLN), inhibitor 100 μM, preincubation 30 min): 1.057 and 0.7107 and 1.167 and 1.093 | vi/v0 avg (time dependent inhibition, Supplementary Figure S8) ([6]; 15 min pre incubation): 1.067 | vi/v0 avg (time dependent inhibition, Supplementary Figure S8) ([6]; 30 min pre incubation): 1.007 | vi/v0 avg (time dependent inhibition, Supplementary Figure S8) ([6]; No preincubation): 1.0666
